From patent EP2368549A1, “Treating hand-foot syndrome and related pathologies using clonidine or its derivatives” (BioAlliance Pharma, priority 2010, dated 2011)

Tests used:
TNFα = conditions: culture supernatant, 24h after substance P addition; clonidine treatment before and during substance P stimulation (topical formulations 0.05%-1% on the epidermis)
Source text: (§1) Human biopsy samples of clinically healthy human skin were obtained from patients undergoing plastic surgery. All patients gave their written informed consent before the surgery has carried out.
(§2) Skin biopsies were cut into 1 cm2 full thickness pieces and washed three times with antibiotics. Subcutaneous fat and lower dermis were mechanically removed. Skin fragments were transferred onto permeable polycarbonate membrane transwells (12 mm diameter, 12 µm pore size) in a well of 12 well plate (as previously described Boisnic S. et al., [1-3]) containing 700µl of defined medium (DMEM, antibiotics, hormones, pituitary extract, FCS). Explants were maintained at the interface between air and medium with the epithelium uppermost and the dermis exposed to the media by diffusion through the porous membrane.
(§3) Cohesion between skin fragments and inserts was obtained with a polyvinylsiloxane addition type silicone elastomer seal (coltène® president) in such a way that no skin retraction or lateral passage of the product towards the dermis was possible.
(§4) The culture was set up for 36 hours in a humidified atmosphere containing 5% CO2 at 37°C, and medium was daily change, culture supernatants were frozen at -80°C until further analysis.
The stimulation of the experimental oral human skin inflammatory process was done by the neuropeptide substance P (SP) [1]. […]

[1] = tested on: human skin organotypic culture; conditions: histology of papillary and upper reticular dermis, 24h after substance P addition; clonidine treatment before and during substance P stimulation
Source text: as §1, §2, §3, §4
At the end of culture all human skin fragments were formalin fixed and paraffin embedded. […]

[2] = clinical trials of breast or colorectal cancer; cited from earlier work

Row | SMILES | proinflammatory cytokines TNFα level (TNFα) | skin oedema [1] | vasodilatation [1] | overall incidence of HFS [2] | patients reporting a severe form (grade 3) of HFS [2]
1 | Clc1cccc(Cl)c1NC1=NCCN1 [clonidine, N-(2,6-dichlorophenyl)-4,5-dihydro-1H-imidazol-2-amine] | decrease | decrease | decrease | – | –
2 | CCCCCOC(=O)Nc1nc(=O)n([C@@H]2O[C@H](C)[C@@H](O)[C@H]2O)cc1F [capecitabine, N4-pentyloxycarbonyl-5'-deoxy-5-fluorocytidine] | – | – | – | around 50% | 17%
